Assay: mn = molality of the nth substance listed, in mol/kg
Details: 101 kPa, Liquid

O=[N+]([O-])[O-].O=[N+]([O-])[O-].O=[N+]([O-])[O-].[Ce+3] [cerium nitrate] + O
mass density [kg/m3]
Details	m1 = 0.5112	m1 = 1.031	m1 = 1.555	m1 = 1.997	m1 = 3.131	m1 = 3.968	m1 = 4.462
293.15 K	1131.2	1252.8	1361.9	1446.2	1633.2	1746.4	1806
298.15 K	1129.3	1250.2	1358.8	1443.1	1629.1	1742.4	1801.8
308.15 K	1124.7	1244.4	1352	1435.7	1620.5	1733.1	1792.2

O=[N+]([O-])[O-].O=[N+]([O-])[O-].O=[N+]([O-])[O-].[La+3] [lanthanum(III) nitrate] + O
mass density [kg/m3]
Details	m1 = 0.4953	m1 = 0.9893	m1 = 1.48	m1 = 1.97	m1 = 2.93	m1 = 3.9	m1 = 4.385
293.15 K	1125.6	1240.6	1343.1	1436.9	1595.8	1729.3	1787.9
298.15 K	1123.8	1238.1	1340.1	1433.6	1591.8	1725.3	1783.8
308.15 K	1119.2	1231.6	1333.5	1426.3	1583.4	1716.3	1774.6

O=[N+]([O-])[O-].O=[N+]([O-])[O-].O=[N+]([O-])[O-].[Nd+3] [neodymium(III) nitrate] + O
mass density [kg/m3]
Details	m1 = 0.522	m1 = 1.021	m1 = 1.555	m1 = 2.093	m1 = 3.086	m1 = 4.124	m1 = 4.297
566.3 K	1136.1	1255.1	1369.8	1474.7	1642.1	1785.9	1807
571.3 K	1134.2	1252.5	1366.7	1471.1	1637.8	1781.1	1802.7
581.3 K	1129.6	1246.7	1359.9	1463.5	1628.8	1771.4	1792.8

O=[N+]([O-])[O-].O=[N+]([O-])[O-].O=[N+]([O-])[O-].[Y+3] [yttrium nitrate] + O
mass density [kg/m3]
Details	293.15 K	298.15 K	308.15 K
m1 = 0.2775	–	1057.4	–
m1 = 0.3213	–	1066.6	–
m1 = 0.3706	–	1076.9	–
m1 = 0.4172	–	1086.5	–
m1 = 0.4989	1105.5	1103.5	1099.2
m1 = 0.9965	1202.6	1200.2	1194.7
m1 = 1.497	1290.8	1287.8	1281.4
m1 = 1.982	1368.7	1365.4	1358.2
m1 = 2.947	1502.8	1498.9	1490.5
m1 = 3.945	1615.7	1611.4	1602.2
m1 = 4.957	1708.9	1704.3	1694.7

From the NIST ThermoML archive (doi:10.1021/je100875a)
